The assay deals with Primary human subcutaneous white adipocytes. As to the kind of experiment: UCP1 qPCR in primary human subcutaneous white adipocytes. The format is cell-based. The note with it: treated with SB. The text has this: All primary cell lines isolated from WAT were generated from outgrowth of the stromal vascular fraction and purchased from commercial vendors. All cell lines were validated to be at least 95% positive for adipogenic precursors as determined by flow cytometry for PDGFRα. Human white preadipocytes (HWP-c) cells, purchased from PromoCell (C-12730), were isolated from subcutaneous adipose tissue of a person with a BMI of 28. Normal human preadipocytes, purchased from Lonza (PT-5020), were isolated from subcutaneous adipose tissue of a person with a BMI of 21. Type 2 diabetic human preadipocytes, purchased from Lonza (PT-5022), were isolated from subcutaneous adipose tissue of a person with a BMI of 42.1. Type 2 diabetic human preadipocytes, purchased from Zenbio (OPD-F-3), were isolated from omental adipose tissue of a person with a BMI of 38.6. Type 2 diabetic human preadipocytes, purchased from Zenbio (SPD-F-3), were isolated from subcutaneous adipose tissue of a person with a BMI of 53.5. Cryopreserved cells were thawed and seeded in a 100×20 mm TC dish and treated as passage 0. Primary adipogenic precursors were expanded in DMEM containing 10% fetal bovine serum. Medium was changed daily and cells were cultured at 37° C. in a 5% CO2 incubator. Upon 80% confluence, cells are split and passaged at a ratio of 1:6 (Passage 1). […]
On the technique in general: Real-time PCR tracks product formation cycle by cycle.

`NC(=O)c1ccc(-c2nc(-c3ccc4c(c3)OCO4)c(-c3ccccn3)[nH]2)cc1` [SB, SB431542]: the UCP1 expression entry is reported as “enhanced expression”.

These data come from patent US12312599B2, “Methods, compositions, and kits for producing beige adipocytes and treating metabolic disorders” (MaineHealth, priority 2018, dated 2025).
